Experimental data: patent publication US6610270B1, “In vivo determination of metabolic function for use in therapy management” (Xanthus Life Sciences, Inc., priority 1998, dated 2003)
Read-outs that look alike come from different tables or passages of the source. Square brackets hold non-standard residues; d marks the D form. Peptide text beside a SMILES is read from it. * marks the point of attachment. pNA = O=[N+]([O-])c1ccc(N*)cc1; Abu = CC[C@H](N)C(=O)O

Columns and labels:
[1] = test system: Aminopeptidase P (APP); conditions: Human BAL
[2] = test system: Aminopeptidase P (APP); conditions: Rat Plasma
[3] = biological target: T1, Dipeptidyl peptidase IV (DPPIV) (Sus scrofa, UniProt P22411); experiment: in-vitro Michaelis-Menten assay with dipeptidyl peptidase reference enzyme; type: biochemical; conditions: read-out: apparent Km
T1 construct: purchased Sigma-Aldrich D7052
Text: Dipeptidyl peptidase reference enzyme was purchased from Sigma-Aldrich (D7052) and assayed by the standard Michaelis-Menten method described in similar studies by Barth and co-workers (Heins, et al.; Rahfeld, et al.). […] Hydrolysis of the latter was quantitated by isotope dilution GC/MS of the N-trifluoroacetyl-propyl ester, using L-2-aminobutyric[^2H5] acid as the internal standard.

[4] = biological target: T2, DPPIV (Rattus norvegicus, UniProt P14740); experiment: plasma enzyme activity towards DPPIV substrates in septic rat model; type: biochemical, Sprague-Dawley rats
T2 construct: from tissue; host or cells: plasma of control and septic rats
Protocol: (§1) Accordingly, ten male Sprague-Dawley rats, weighing approximately 300 gr., were injected with 3.5 mg/kg of GPA (prepared by sterile ultrafiltration in saline) and placed into metabolic cages for ^13CO2 collection (by alkaline trapping in seven 0.5 hour increments), in general as described by Vann et al. A blood draw of 0.4 ml was taken prior to the tracer administration to provide a baseline plasma titer for in vivo DPPIV activity. The following day, the rats were separated into a control panel and a test panel. Each of the three animals in the test panel was made septic (on Day 0) by intravenous (tail vein) adminstration of E. coli. Three control animals were sham injected with saline, and all were maintained in separate cages.
(§2) On day 2 and 6, and after a […], the administration of the “breath test” metaprobe and ^13CO2 collection was repeated. Equal aliquots of plasma were assayed for enzyme activity by spectrophotometry in two ways: a) using GP4NA (FIG. 16, structure I), a traditional and confirmatory approach, and b) using GPPaba (FIG. 16, structure III with R1 being the protonated free acid) by GC/MS quantitation of the p-aminobenzoic[1-^13C] acid (Paba, FIG. 16, structure IV) derived hydrolytically. The isotopic enrichment of the seven breath collections was measured by isotope ratio mass spectrometry, of the gas liberated after phosphoric acid protonation. The cumulative extent of metaprobe metabolism, as a per cent of dose taking into account the total CO2 production rate of each animal (Mohan et al.) was then calculated.
(§3) Also, over the 7 day experiment, the specific activity of plasma towards GP4NA in the control group averaged 29±6 nMol/min/ml while the septic titer rose to 43±7 and 49±6 on days two and six, respectively. The corresponding values of plasma activity towards GPPaba in the control group averaged 18±7 nMol/min/ml while the septic titer rose to 55±17 and 30±6 on days two and six, respectively. A “sham” breath test using 1.5 mg/kg administration of L-2-aminobutyric[1-^13C] acid in saline on day 3 of the experiment confirmed that oxidation of the release tag was similar in control and test groups, affording a cumulative oxidation of 65±8.3 and 72±9.4 per cent of dose recovery in 3 hours, respectively.

[5] = biological target: T3, Dipeptidyl Peptidase IV (DPPIV/CD26) (Rattus norvegicus, UniProt P14740); experiment: DPPIV metaprobe breath test in the septic rat; type: in vivo, Sprague-Dawley rats; conditions: 3.5 mg/kg injected
T3 construct: from tissue; host or cells: whole rat in vivo (injected dose, 13CO2 collection)
Protocol: as §1, §2

[6] = sham breath test with free core tracer in septic rat model; type: in vivo, Sprague-Dawley rats; conditions: 1.5 mg/kg in saline, day 3, in 3 hours
Protocol: as §3

[7] = test system: nitric oxide synthase (NOS)
Text: These studies constitute part of a continuing series intended to extend the protocols initiated by Castillo et al. (1996) and depend on intravenous metaprobe administration and mass spectral analysis of the resulting analytes extracted from plasma.

[8] = biological target: T4, bovine thrombin (Bos taurus, UniProt P00735); experiment: metaprobe hydrolysis in solution by purified thrombin; type: biochemical; conditions: 0.5 NIH unit per ml, pH 8.4, 37° C., 15 minutes
T4 construct: Freshly prepared solutions of bovine thrombin and bovine plasmin, from reconstituted lyophilized powders (Sigma); purchased Sigma
Protocol: (§4) The suitability of substrates I-VI was tested by the enzymatic assay protocol of Svendsen. Freshly prepared solutions of bovine thrombin and bovine plasmin, from reconstituted lyophilized powders (Sigma) were prepared in tris-imidazole buffer at pH 8.4 to deliver nominally 0.5 NIH unit per ml of thrombin and 1 WHO unit of plasmin. After preincubation for 5 minutes at 37° C., 0.25 ml of an 0.5 mMolar solution of each substrate in the same aqueous buffer was added and the separate reactions incubated for 15 minutes at the same temperature. Reaction was stopped by addition of 1:9 concentrated HCl:methanol. Concentration of the supernatant, ion exchange chromatography on Dowex-50, with 2N ammonia water eluant, as a further desalting and deproteinizing step, afforded the amino acid fraction resulting from the enzymatic hydrolysis of the metaprobes. The concentration of p-aminobenzoic[1-^13C] acid (with tetradeutero isotopolog as internal quantitation standard) and of L-2-aminobutyric[1-^13C] acid (with pentadeutero isotopolog as internal quantitation standard) were then analyzed by isotope dilution GC/MS using the N-trifluoroacetyl propyl ester derivatives and the total hydrolytic conversion expressed as […]

[9] = biological target: T5, bovine plasmin (Bos taurus, UniProt P06868); experiment: metaprobe hydrolysis in solution by purified plasmin; type: biochemical; conditions: 1 WHO unit, pH 8.4, 37° C., 15 minutes
T5 construct: Freshly prepared solutions of bovine thrombin and bovine plasmin, from reconstituted lyophilized powders (Sigma); purchased Sigma
Protocol: as §4

[10] = biological target: T6, thrombin (Rattus norvegicus, UniProt P18292); experiment: thrombin metaprobe hydrolysis in whole blood, septic rat model; type: biochemical
T6 construct: from tissue; host or cells: unfractionated whole blood of control and septic rats

[11] = test system: thrombin and plasmin; experiment: net coagulant potential (NCP) in whole blood, septic rat model; type: biochemical
[12] = biological target: T7, plasmin (Rattus norvegicus, UniProt Q01177); experiment: plasmin metaprobe hydrolysis in whole blood, septic rat model; type: biochemical
T7 construct: from tissue; host or cells: unfractionated whole blood of control and septic rats

[13] = control group, average over the 7 day experiment

T2 sequence (P14740 37-767 limits assumed): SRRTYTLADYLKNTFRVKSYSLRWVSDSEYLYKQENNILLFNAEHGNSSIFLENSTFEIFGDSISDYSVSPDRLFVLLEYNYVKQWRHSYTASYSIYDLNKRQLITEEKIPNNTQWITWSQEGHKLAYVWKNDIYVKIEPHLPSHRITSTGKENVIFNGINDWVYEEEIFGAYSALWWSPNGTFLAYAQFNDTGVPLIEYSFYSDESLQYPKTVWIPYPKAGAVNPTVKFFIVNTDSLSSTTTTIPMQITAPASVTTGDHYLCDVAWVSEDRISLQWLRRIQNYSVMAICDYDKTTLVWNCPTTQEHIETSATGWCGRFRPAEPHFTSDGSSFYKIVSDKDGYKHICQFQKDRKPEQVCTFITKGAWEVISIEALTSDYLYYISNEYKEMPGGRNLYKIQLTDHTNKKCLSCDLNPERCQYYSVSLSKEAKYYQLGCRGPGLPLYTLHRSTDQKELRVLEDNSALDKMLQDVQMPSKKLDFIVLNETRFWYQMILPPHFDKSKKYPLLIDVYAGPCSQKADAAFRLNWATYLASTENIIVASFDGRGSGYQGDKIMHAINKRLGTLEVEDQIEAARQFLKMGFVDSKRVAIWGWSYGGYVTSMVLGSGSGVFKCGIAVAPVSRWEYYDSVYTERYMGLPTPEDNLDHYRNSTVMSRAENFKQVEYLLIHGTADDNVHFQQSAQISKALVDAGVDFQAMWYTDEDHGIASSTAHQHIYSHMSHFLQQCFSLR
T3 sequence (P14740 whole entry): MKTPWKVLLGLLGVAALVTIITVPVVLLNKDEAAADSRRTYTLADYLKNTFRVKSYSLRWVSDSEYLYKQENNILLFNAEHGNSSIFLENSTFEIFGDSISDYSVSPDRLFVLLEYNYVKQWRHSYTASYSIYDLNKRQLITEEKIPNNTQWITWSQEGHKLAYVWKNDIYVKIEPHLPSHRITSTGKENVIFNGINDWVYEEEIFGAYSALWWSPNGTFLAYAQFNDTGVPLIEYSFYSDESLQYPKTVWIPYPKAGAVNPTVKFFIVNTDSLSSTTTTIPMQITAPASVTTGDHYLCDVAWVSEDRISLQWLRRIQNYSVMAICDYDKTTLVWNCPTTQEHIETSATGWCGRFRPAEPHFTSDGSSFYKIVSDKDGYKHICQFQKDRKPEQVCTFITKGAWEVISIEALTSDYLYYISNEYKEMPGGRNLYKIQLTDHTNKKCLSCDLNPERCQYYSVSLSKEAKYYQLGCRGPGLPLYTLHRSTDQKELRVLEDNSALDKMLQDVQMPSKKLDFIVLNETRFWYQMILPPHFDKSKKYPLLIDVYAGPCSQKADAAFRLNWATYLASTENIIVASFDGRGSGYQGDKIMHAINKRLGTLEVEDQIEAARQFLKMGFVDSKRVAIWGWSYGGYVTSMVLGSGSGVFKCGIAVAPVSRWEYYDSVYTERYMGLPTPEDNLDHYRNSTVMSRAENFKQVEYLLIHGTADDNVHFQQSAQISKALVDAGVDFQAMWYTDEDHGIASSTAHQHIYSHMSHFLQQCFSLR
T5 sequence (P06868 584-812 limits assumed): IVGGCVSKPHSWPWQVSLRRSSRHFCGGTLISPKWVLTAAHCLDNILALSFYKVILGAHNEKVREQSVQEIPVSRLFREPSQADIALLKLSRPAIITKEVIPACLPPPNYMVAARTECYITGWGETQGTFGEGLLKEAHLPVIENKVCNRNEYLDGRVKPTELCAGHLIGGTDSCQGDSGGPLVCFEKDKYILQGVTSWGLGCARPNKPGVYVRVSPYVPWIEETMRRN
T5 sequence (P06868 104-583 limits assumed): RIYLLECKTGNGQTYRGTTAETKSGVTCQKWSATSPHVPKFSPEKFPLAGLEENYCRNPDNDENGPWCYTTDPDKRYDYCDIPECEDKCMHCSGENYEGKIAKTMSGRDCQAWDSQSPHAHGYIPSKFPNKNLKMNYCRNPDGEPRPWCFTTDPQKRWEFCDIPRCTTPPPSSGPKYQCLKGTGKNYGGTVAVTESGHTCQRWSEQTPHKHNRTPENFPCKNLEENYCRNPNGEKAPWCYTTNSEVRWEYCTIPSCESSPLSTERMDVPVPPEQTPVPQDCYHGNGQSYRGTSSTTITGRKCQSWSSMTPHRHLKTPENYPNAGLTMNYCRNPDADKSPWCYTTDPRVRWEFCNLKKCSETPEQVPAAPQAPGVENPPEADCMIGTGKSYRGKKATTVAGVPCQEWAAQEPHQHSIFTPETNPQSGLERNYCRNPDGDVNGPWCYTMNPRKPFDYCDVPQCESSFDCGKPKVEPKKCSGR
T7 sequence (Q01177 582-812 limits assumed): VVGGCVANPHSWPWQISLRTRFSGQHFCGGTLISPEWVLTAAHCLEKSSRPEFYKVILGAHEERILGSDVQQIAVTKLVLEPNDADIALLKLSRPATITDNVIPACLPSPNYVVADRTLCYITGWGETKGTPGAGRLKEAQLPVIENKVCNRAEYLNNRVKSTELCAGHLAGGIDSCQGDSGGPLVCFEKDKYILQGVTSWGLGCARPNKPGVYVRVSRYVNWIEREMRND
T7 sequence (Q01177 97-581 limits assumed): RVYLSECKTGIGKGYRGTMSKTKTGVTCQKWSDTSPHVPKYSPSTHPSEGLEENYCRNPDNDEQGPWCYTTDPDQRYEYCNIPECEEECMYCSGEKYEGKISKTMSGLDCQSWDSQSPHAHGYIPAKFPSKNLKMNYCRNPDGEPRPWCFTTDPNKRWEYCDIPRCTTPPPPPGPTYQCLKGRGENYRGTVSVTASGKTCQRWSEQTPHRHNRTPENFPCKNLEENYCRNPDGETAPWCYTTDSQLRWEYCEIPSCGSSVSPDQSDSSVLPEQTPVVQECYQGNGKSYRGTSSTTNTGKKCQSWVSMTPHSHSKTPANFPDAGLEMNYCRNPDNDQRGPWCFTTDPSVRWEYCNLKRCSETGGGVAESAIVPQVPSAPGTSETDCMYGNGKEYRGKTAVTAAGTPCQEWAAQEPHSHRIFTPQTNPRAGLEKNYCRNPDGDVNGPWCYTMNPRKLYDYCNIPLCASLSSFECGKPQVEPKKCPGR
T1 sequence (P22411 whole entry): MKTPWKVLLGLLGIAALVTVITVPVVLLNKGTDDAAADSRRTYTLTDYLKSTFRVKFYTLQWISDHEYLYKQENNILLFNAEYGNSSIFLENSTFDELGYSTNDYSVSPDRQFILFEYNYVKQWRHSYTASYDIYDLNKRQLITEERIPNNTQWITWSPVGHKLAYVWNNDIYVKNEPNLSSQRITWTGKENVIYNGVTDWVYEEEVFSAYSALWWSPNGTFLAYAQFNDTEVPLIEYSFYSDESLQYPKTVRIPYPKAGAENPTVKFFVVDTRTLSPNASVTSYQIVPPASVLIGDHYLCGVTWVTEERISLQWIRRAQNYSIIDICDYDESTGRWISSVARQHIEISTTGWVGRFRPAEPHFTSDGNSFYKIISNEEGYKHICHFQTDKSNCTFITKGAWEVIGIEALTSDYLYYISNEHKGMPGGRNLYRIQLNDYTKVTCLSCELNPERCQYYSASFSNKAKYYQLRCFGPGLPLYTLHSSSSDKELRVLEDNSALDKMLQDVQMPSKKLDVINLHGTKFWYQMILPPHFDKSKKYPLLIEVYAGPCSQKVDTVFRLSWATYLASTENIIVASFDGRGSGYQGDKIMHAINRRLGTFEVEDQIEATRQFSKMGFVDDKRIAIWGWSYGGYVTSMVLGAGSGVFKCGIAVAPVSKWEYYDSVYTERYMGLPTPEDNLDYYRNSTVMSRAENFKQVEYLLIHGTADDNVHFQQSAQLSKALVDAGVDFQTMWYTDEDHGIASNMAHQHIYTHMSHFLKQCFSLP

CCOC(=O)[C@@H]1CCCN1C(=O)[C@@H]1CCCN1[13C](=O)CN [Aminopeptidase P Metaprobe, glycyl[1-^13C]-L-prolyl-L-proline, ethyl ester]
% Dose metabolized ([1]; Control, two hour incubation at 37° C.): 22 ± 4 % Dose
% Dose metabolized ([1]; Test sample, ARDS): 44 ± 14 % Dose
% Dose metabolized ([2]; Control): 5 ± 4 % Dose
% Dose metabolized ([2]; Test sample, Sepsis): 28 ± 7 % Dose

NCC(=O)N1CCC[C@H]1C(=O)Nc1ccc([N+](=O)[O-])cc1 [GP4NA, Glycyl-Prolyl-4-nitro-anilide, reference compound] (H-Gly-Pro-pNA)
Km [3]: 130 µM
specific activity of plasma towards substrate [4, 13]: 29 ± 6 nmol/min/mL
specific activity of plasma towards substrate ([4]; septic, day six): 49 ± 6 nmol/min/mL
specific activity of plasma towards substrate ([4]; septic, day two): 43 ± 7 nmol/min/mL

CC[C@H](NC(=O)[C@@H]1CCCN1C(=O)CN)[13C](=O)O [GPA, glycyl-prolyl-2-aminobutyric[1-^13C] acid]
Cumulative Per Cent of Dose Exhaled in 3 Hours ([5]; Day 1, CONTROL): 4.3 (± 0.8) Per Cent of Dose
Cumulative Per Cent of Dose Exhaled in 3 Hours ([5]; Day 1, SEPSIS): 5.7 (± 1.4) Per Cent of Dose
Cumulative Per Cent of Dose Exhaled in 3 Hours ([5]; Day 2, CONTROL): 8.9 (± 1.3) Per Cent of Dose
Cumulative Per Cent of Dose Exhaled in 3 Hours ([5]; Day 2, SEPSIS): 22.5 (± 5.3) Per Cent of Dose
Cumulative Per Cent of Dose Exhaled in 3 Hours ([5]; Day 6, CONTROL): 4.9 (± 0.8) Per Cent of Dose
Cumulative Per Cent of Dose Exhaled in 3 Hours ([5]; Day 6, SEPSIS): 9.2 (± 6.3) Per Cent of Dose

CC[C@H](NC(=O)[C@@H]1CCCN1C(=O)CN)C(=O)O [GPA, glycyl-prolyl-2-aminobutyric[1-^13C] acid] (H-Gly-Pro-[Abu]-OH)
Km [3]: 200 µM

CC[C@H](N)[13C](=O)O [L-2-aminobutyric[1-^13C] acid]
cumulative oxidation, per cent of dose recovery ([6]; control group): 65±8.3 per cent of dose
cumulative oxidation, per cent of dose recovery ([6]; test (septic) group): 72±9.4 per cent of dose

N[C@@H](CCCN=C([15NH2])[15NH2])C(=O)O [L-arginine[guanidino-^15N2]]
NOPI2 on Admission ([7]; 2 day average in ICU, rapid recovery, no sepsis, n = 4): 0.3 +/− 0.14 (n = 4)
NOPI2 on Admission ([7]; 4 day average in ICU, recovery, sepsis treated successfully, n = 4): 2.99 +/− 1.24 (n = 4)
NOPI2 on Admission ([7]; 7 day average in ICU, death from complications of sepsis and trauma, n = 3): 6.64 +/− 1.92 (n = 3)
NOPI2 on Admission ([7]; Normal Control, healthy (not admitted), n = 4): 0.2 +/− 0.15 (n = 4)

CCO[13C](=O)c1ccc(NC(=O)[C@H](CCCNC(=N)N)NC(=O)[C@@H]2CCCN2C(=O)[C@@H](Cc2ccccc2)NC(C)=O)cc1 [Substrate I, N-acetyl-d-phenylalanyl-L-prolyl-L-arginyl-p-aminobenzoic[1-^13C] acid, ethyl ester]
Product formed, Thrombin [8]: 6.0 nmol/min/mL
Product formed, Plasmin [9]: 1.8 nmol/min/mL

CCO[13C](=O)[C@H](CC)NC(=O)[C@H](CCCNC(=N)N)NC(=O)[C@@H]1CCCN1C(=O)[C@@H](Cc1ccccc1)NC(C)=O [Substrate II, N-acetyl-d-phenylalanyl-L-prolyl-L-arginyl-L-2-aminobutyric[1-^13C] acid, ethyl ester]
Product formed, Thrombin [8]: 6.9 nmol/min/mL
Product formed, Plasmin [9]: 2.3 nmol/min/mL

CCO[13C](=O)c1ccc(NC(=O)C(CCCNC(=N)N)NC(=O)C2CCCN2C(=O)CNC(C)=O)cc1 [Substrate III, N-acetyl-glycyl-L-prolyl-L-arginyl-p-aminobenzoic[1-^13C] acid, ethyl ester]
Product formed, Thrombin [8]: 6.6 nmol/min/mL
Product formed, Plasmin [9]: 3.6 nmol/min/mL

CCO[13C](=O)[C@H](CC)NC(=O)[C@H](CCCNC(=N)N)NC(=O)[C@@H]1CCCN1C(=O)CNC(C)=O [Substrate IV, N-acetyl-glycyl-L-prolyl-L-arginyl-L-2-aminobutyric[1-^13C] acid, ethyl ester]
Product formed, Thrombin [8]: 7.8 nmol/min/mL
Product formed, Plasmin [9]: 3.1 nmol/min/mL
Percent of Metaprobe Dose Metabolized ([10]; Control, Day 0): 22 ± 9%
Percent of Metaprobe Dose Metabolized ([10]; Septic, Day 2): 76 ± 15%
Percent of Metaprobe Dose Metabolized ([10]; Septic, Day 6): 39 ± 12%
Percent of Metaprobe Dose Metabolized ([10]; Septic, Day 10): 25 ± 10%
NCP, net coagulant potential (difference between metaprobe IV and VI) ([11]; Control, Day 0): 11 ± 10%
NCP, net coagulant potential (difference between metaprobe IV and VI) ([11]; Septic, Day 2): 62 ± 17%
NCP, net coagulant potential (difference between metaprobe IV and VI) ([11]; Septic, Day 6): −13 ± 21%
NCP, net coagulant potential (difference between metaprobe IV and VI) ([11]; Septic, Day 10): 2 ± 15%

CCO[13C](=O)c1ccc(NC(=O)[C@H](CCCCN)NC(=O)[C@H](CC(C)C)NC(=O)[C@@H](N)CC(C)C)cc1 [Substrate V, L-leucyl-L-leucyl-L-lysyl-p-aminobenzoic[1-^13C] acid, ethyl ester]
Product formed, Thrombin [8]: 0.3 nmol/min/mL
Product formed, Plasmin [9]: 7.2 nmol/min/mL

CCO[13C](=O)[C@H](CC)NC(=O)[C@H](CCCCN)NC(=O)[C@H](CC(C)C)NC(=O)[C@@H](N)CC(C)C [Substrate VI, L-leucyl-L-leucyl-L-lysyl-L-2-aminobutyric[1-^13C] acid, ethyl ester]
Product formed, Thrombin [8]: 0.4 nmol/min/mL
Product formed, Plasmin [9]: 8.1 nmol/min/mL
Percent of Metaprobe Dose Metabolized ([12]; Control, Day 0): 11 ± 5%
Percent of Metaprobe Dose Metabolized ([12]; Septic, Day 2): 14 ± 7%
Percent of Metaprobe Dose Metabolized ([12]; Septic, Day 6): 52 ± 17%
Percent of Metaprobe Dose Metabolized ([12]; Septic, Day 10): 23 ± 12%

gylcyl-prolyl-p-aminobenzoic[1-^13C] acid [GPPaba]
specific activity of plasma towards substrate [4, 13]: 18 ± 7 nmol/min/mL
specific activity of plasma towards substrate ([4]; septic, day six): 30 ± 6 nmol/min/mL
specific activity of plasma towards substrate ([4]; septic, day two): 55 ± 17 nmol/min/mL
